Assay results reported in patent US12097232B1, “Method of preventing cadmium-induced renal toxicity using a plant product derived from Achillea millefolium L” (KING FAISAL UNIVERSITY, priority 2024, dated 2024).

Tests used:
Assay type in all cases: in vivo, Wistar rats
[1] = Kidney weight in CdCl2-induced renal toxicity rats
Protocol: (§1) Thirty-two adult male Wistar rats (8-9 weeks old, weighing, 160-180 g) were purchased from the Experimental Animal Research Centre, King Saud University, Riyadh, KSA.
All the animals were maintained with typical laboratory food and water ad libitum in a ventilated cage system (12 h light/dark cycle, 20.3-23.1° C.) throughout the whole experiment.
(§2) To study the renal protective activity of Achillea millefolium essential oil (AEO) on CdCl2-induced renal toxicity, rats were randomly divided into four groups (n=8 per group). Control rats were orally administered saline 1 h before injected intraperitoneally (i.p.) with 0.9% NaCl (physiological saline) daily for 5 days. The CdCl2 group was orally administered saline 1 h before injected i.p. with 6.5 mg/kg CdCl2 daily for 5 days. The AEO group was orally administered AEO (200 mg/kg) 1 h before injected with 0.9% NaCl (physiological saline) daily for 5 days. The AEO+CdCl2 group was orally administered AEO (100 mg/kg) 1 h before injected 6.5 mg/kg CdCl2 i.p. daily for 5 days. CdCl2 was dissolved in physiological saline.
(§3) Rats were euthanized (decapitation) 24 hours after the final dosing. The kidneys were dissected, weighed to obtain the weight and then divided into 2 parts. […] The 2nd part was kept at −80° C. for quantitative real-time qRT-PCR.

[2] = test system: Caspase 3, Caspase 9, Bax, Bcl2; conditions: CdCl2 renal injury vs control
Protocol: as §1, §2
(§4) Rats were euthanized (decapitation) 24 hours after the final dosing. The kidneys were dissected, weighed to obtain the weight and then divided into 2 parts. The 1st part was homogenized in ice-cold 10 mM phosphate buffer (pH 7.4) to produce a 10% (w/v) homogenate for biochemical analysis. The 2nd part was kept at −80° C. for quantitative real-time qRT-PCR.
(§5) Gene expression for the TLR pathway, High-mobility group box 1 (HMBG1), Toll-Like Receptor 4 (TLR4), myeloid differentiation primary response gene 88 (MYD88), and Nuclear factor kappa B (NFκB) were quantified via real-time PCR (qPCR) consuming the primers' sequences, shown in Table 1, in agreement with the method described elsewhere. Briefly, RNA was isolated and purified using a Trizol reagent kit (Invitrogen, Carlsbad, CA, USA), then a reverse transcription polymerase chain reaction (RT-PCR) kit (TaKaRa, Kusatsu, Shiga, Japan) to reverse transcription reaction following the manufacturer's procedures. qPCR was applied using a SYBR ExScript RT-PCR kit, and quantification examinations were accomplished via an Opticon-2 Real-time PCR reactor (MJ Research, Capital Court, Reno, NV, USA). qPCR results were obtained using Step PE Applied Biosystems (Waltham, MA, USA) software. Relative gene expression data were calculated as mentioned earlier by the Livak and Schmittgen method (2−^ΔΔCq2) and presented as a fold change.
The actions of AEO administration on the apoptotic markers, such as caspase-3 and caspase 9 were evaluated.

[3] = test system: TNF-α, IFN-γ, MCP-1, IL-10; test: Renal inflammatory mediators by ELISA in Cd-induced renal toxicity; conditions: CdCl2 group vs control
Protocol: as §1, §2, §4
Inflammation markers including interferon gamma (IFN-γ), monocyte chemoattractant protein-1 (MCP-1), tumor necrosis factor alpha (TNF-α), and interleukin 10 (IL-10) were measured using ELISA kits.

[4] = test system: kidney function biomarkers (BUN, uric acid, creatinine, NAG); test: Kidney function biomarkers in CdCl2-induced renal toxicity
Protocol: as §1, §2, §4
Biomarkers of kidney function, i.e., Blood urea nitrogen (BUN), uric acid, and creatinine, were evaluated by using specific commercial kits. N-acetyl-β-D-glucosaminidase (NAG) is a marker of tubular toxicity was assessed using ELISA kit.

[5] = test system: HMGB1, TLR4, MYD88, NFκB gene expression; conditions: renal
Protocol: as §1, §2, §4, §5

[6] = Cd concentration in renal tissue by atomic absorption spectrophotometry
Protocol: as §1, §2, §3
The Cd concentrations in renal tissues were estimated as mentioned before. […] The levels of metal were measured by atomic absorption spectrophotometry in a graphite furnace at 228.8 nm. The Cd values are expressed as microgram per gram of wet renal tissue.

[7] = test system: MDA, SOD, CAT, GPx, GSH; test: Renal oxidative stress markers in Cd-induced renal toxicity
Protocol: as §1, §2, §4
Lipid peroxidation was assessed according to the amount of malondialdehyde (MDA). The content of reduced glutathione (GSH) was evaluated and the activities of Catalase (CAT), Superoxide dismutase (SOD) and glutathione peroxidase (GPx) were estimated using kits.

[8] = CdCl2 group: CdCl2 6.5 mg/kg i.p. daily 5 days, mean ± SD
[9] = Cd experienced animals vs control
[10] = renal, CdCl2 administered rats vs control

[Cl][Cd][Cl] [CdCl2]
kidney weight (in words) ([1]; CdCl2 group vs control): reduction in kidney weight
Kidney wt. [1, 8]: 1.43 ± 0.11 g
caspase 3 renal content [2]: augmented
caspase 9 renal content [2]: augmented
Bax gene expression ([2]; renal): augmented
Bcl2 gene expression ([2]; renal): diminished
IFN-γ renal level [3]: amplified
MCP-1 renal level [3]: amplified
TNF-α renal level [3]: amplified
IL-10 level ([3]; renal): declined
BUN level (in words) ([4]; Cd-exposed rats vs control): increases
serum creatinine level (in words) ([4]; Cd-exposed rats vs control): increases
uric acid level (in words) ([4]; Cd-exposed rats vs control): increases
BUN [4, 8]: 40.66 ± 3.15 mg/dL
NAG [4, 8]: 33.2 ± 6.8 mIU/ml
Uric acid [4, 8]: 4.54 ± 0.15 mg/dL
Creatinine ([4]; serum, CdCl2 group: CdCl2 6.5 mg/kg i.p. daily 5 days, mean ± SD): 0.68 ± 0.01 mg/dL
HMGB1 mRNA expression level ([5]; Cd administered rats vs control): increased
MYD88 mRNA expression [5, 9]: amplified significantly
TLR4 mRNA expression [5, 9]: amplified significantly
nuclear NFκB p65 level ([5]; Cd group vs control): significantly augmented
Cd concentration in renal tissue (in words) ([6]; CdCl2 group vs control): significantly increased
Cd concentration [6, 8]: 0.95 ± 0.01 μg/g renal tissue
renal GSH content ([7]; CdCl2 group vs control): obvious reduction
CAT activity [7, 10]: considerably declined
GPx activity [7, 10]: considerably declined
SOD activity [7, 10]: considerably declined
MDA level (lipid peroxidation) ([7]; renal, CdCl2 group vs control): augmented
